The values that follow come from paper PMC10334471, “Tumor-targeted dual-action NSAID-platinum(IV) anticancer prodrugs” (Inorganic Chemistry Frontiers, 2023).

Data set [1] can be described thus: Stability in aqueous buffer pH 7.4 (HPLC). The settings on record: 1 mM, 250 mM phosphate buffer pH 7.4, 20 °C, 25 h, HPLC. In kind it is physicochemical. Here is the method: (§1) Phosphate buffer (250 mM, pH 7.4) containing 1 mM platinum compound was incubated at 20 °C, with and without the addition of 10 eq. L-ascorbic acid. […] A gradient of 5–95% over 5 minutes was used. To evaluate the current state of the reaction, the peak area of the parental complex was used.

Data set [2] is described as follows: Reduction kinetics with 10 eq. ascorbic acid (UHPLC). In kind it is physicochemical. The following applies: 1 mM, 250 mM phosphate buffer pH 7.4, 20 °C, 10 eq. ascorbic acid. Here is the method: as §1
Data set [3] can be described thus: Released salicylic acid in serum of mice after single i.v. administration (UHPLC-MS). The settings on record: for Free salicylic acid in serum, share of administered dose: tumor-free Balb/c mice. Here is the method:
After 10 min, 1 h and 24 h blood was collected via the facial vein. Serum was isolated by centrifugation at 900 g for 10 min for two times and stored at −80 °C. Platinum content was detected by ICP-MS measurements, using an Agilent 7800 (Agilent Technologies, Tokyo, Japan) equipped with an Agilent SPS 4 autosampler (Agilent Technologies, Tokyo, Japan) and a MicroMist nebulizer. The Agilent MassHunter software package (Workstation Software, Version C.01.04, 2018) was used for data evaluation. The ICP-MS operation parameters are given in Table S1. ^† Salicylic acid was extracted and detected as described above.

A further data set deals with Caco-2. Kind of data set: MTT assay, 72 h, Caco-2. In kind it is cell-based. The settings on record: Caco-2, MTT, 72 h treatment, mean ± SD. On the procedure:
(§2) All cell cultures were grown at 37 °C in a humidified atmosphere containing 5% CO2. HCT116, RKO and HT-29 cells were cultured in McCoy's 5A Modified Media (Sigma-Aldrich, St. Louis, MO, USA) supplemented with 10% heat-inactivated fetal calf serum (FCS, PAA, Linz, Austria) and 2 mM glutamine (Sigma-Aldrich, St. Louis, MO, USA). The murine (Balb/c) colon cancer cell model CT26 (purchased from American Type Culture Collection, Manassas, VA, USA) were cultured in DMEM/F12 supplemented with 10% fetal calf serum (FCS). SW480 and Caco-2 cells were cultured in MEME media supplemented with 10% and 20% FCS, respectively. All cell culture media and reagents were purchased from Sigma-Aldrich Austria. […] The cells were regularly checked for Mycoplasma contamination.
(§3) Depending on their proliferation rate, cells were seeded at a density of 3500–5000 cells per well in 96-well microtiter plates and allowed to adhere overnight. […] Cell viability was determined using the 3-(4,5-dimethylthiazol-2-yl)-2,5-diphenyltetrazolium bromide (MTT) assay (EZ4U, Biomedia, Vienna, Austria) according to the manufacturer's recommendation. Depending on the metabolic capacity, the cell lines were incubated between one and three hours at 37 °C and subsequently absorbance was measured at 450 nm (620 nm as a reference) with a Tecan Reader infinite® M200Pro (Tecan Group Ltd, Switzerland). Data were analyzed using Graph Pad prism (version 8.0.1) by using the point-to-point function. […] Following, dose–response curves were calculated using the point-to-point function.

For a further data set, the system named is RKO. The experiment in a line: MTT assay, 72 h, RKO. The settings on record: 72 h treatment, mean ± SD. In kind it is cell-based. Here is the method:
as §2, §3
A general note: Tetrazolium assays rely on reduction of a dye to a coloured formazan, in cell work by metabolically active cells.

For the next data set, the system named is SW480. The experiment in a line: MTT assay, 72 h, SW480. The settings on record: 72 h treatment, mean ± SD. In kind it is cell-based. Here is the method: as §2, §3
The test system of another data set is HT-29. Kind of data set: MTT assay, 72 h, HT-29. The following applies: for IC50: HT-29, MTT, 72 h treatment, mean ± SD. The class given is cell-based. Here is the method: as §2, §3
For another data set, the system named is HCT116. Kind of data set: MTT assay, 72 h, HCT116. The class given is cell-based. The following applies: 72 h treatment, mean ± SD. On the procedure: as §2, §3
The subject of a further data set is HCT116/OxR. The experiment in a line: MTT assay, 72 h, HCT116/OxR (oxaliplatin-resistant). The class given is cell-based. The following applies: 72 h treatment, mean ± SD. Here is the method:
as §2, §3

Another data set relates to CT26 (murine). Kind of data set: MTT assay, 72 h, CT26. The class given is cell-based. The settings on record: 72 h treatment, mean ± SD. Here is the method: as §2, §3
Data set [4] has as its system colorectal cancer cell line panel. The experiment in a line: MTT assays, 72 h, whole panel comparison. In kind it is cell-based. The settings on record: in most cell lines of the panel. On the procedure:
All cell cultures were grown at 37 °C in a humidified atmosphere containing 5% CO2. HCT116, RKO and HT-29 cells were cultured in McCoy's 5A Modified Media (Sigma-Aldrich, St. Louis, MO, USA) supplemented with 10% heat-inactivated fetal calf serum (FCS, PAA, Linz, Austria) and 2 mM glutamine (Sigma-Aldrich, St. Louis, MO, USA). The murine (Balb/c) colon cancer cell model CT26 (purchased from American Type Culture Collection, Manassas, VA, USA) were cultured in DMEM/F12 supplemented with 10% fetal calf serum (FCS). SW480 and Caco-2 cells were cultured in MEME media supplemented with 10% and 20% FCS, respectively. All cell culture media and reagents were purchased from Sigma-Aldrich Austria. […]
Depending on their proliferation rate, cells were seeded at a density of 3500–5000 cells per well in 96-well microtiter plates and allowed to adhere overnight. […] Cell viability was determined using the 3-(4,5-dimethylthiazol-2-yl)-2,5-diphenyltetrazolium bromide (MTT) assay (EZ4U, Biomedia, Vienna, Austria) according to the manufacturer's recommendation. Depending on the metabolic capacity, the cell lines were incubated between one and three hours at 37 °C and subsequently absorbance was measured at 450 nm (620 nm as a reference) with a Tecan Reader infinite® M200Pro (Tecan Group Ltd, Switzerland). Data were analyzed using Graph Pad prism (version 8.0.1) by using the point-to-point function. […]

The nature of data set [5]: Preliminary oral tolerability experiments in tumor-free mice. In kind it is in vivo. The following applies: 52.8 mg kg^−1 p.o. From the text:
It is well known that COX-2 is involved in the paracrine signaling between immune cells, resulting in a pro-tumorigenic tumor microenvironment.[10,33] Consequently, we got interested in the impact of the Asa ligand on the anticancer activity of the drugs in vivo. Therefore, we chose immune-competent murine colon cancer CT26 allografts as test system, which were characterized by high COX-2 expression (Fig. S4 ^†). […] Thus, the experiment was stopped on day 19 due to a distinct drop in body weight in these animals. As Asa is clinically applied p.o., we tested the efficacy of OxAsaOAc and asplatin in an oral application setting. […] For the therapy experiment, the animals were treated with OxAsaOAc and asplatin for five subsequent days over two weeks. […] Consequently, we concluded that the drug doses reaching the tumor in these therapy settings were insufficient, which prompted us to aim for carrier systems with enhanced tumor-targeting properties.

Data set [6] concerns CT26 allografts. Kind of data set: Oral anticancer activity in CT26 allografts. The settings on record: OxAsaOAc 52.8 mg kg^−1 p.o., five subsequent days over two weeks. In kind it is in vivo, Balb/c mice. Here is the method: It is well known that COX-2 is involved in the paracrine signaling between immune cells, resulting in a pro-tumorigenic tumor microenvironment.[10,33] Consequently, we got interested in the impact of the Asa ligand on the anticancer activity of the drugs in vivo. […] As Asa is clinically applied p.o., we tested the efficacy of OxAsaOAc and asplatin in an oral application setting. […] For the therapy experiment, the animals were treated with OxAsaOAc and asplatin for five subsequent days over two weeks.
(§4) All experiments were executed according to the regulation of the Ethics Committee for the Care and Use of Laboratory Animals at the Medical University Vienna. 8–12 weeks old BALB/c were kept in a pathogen-free environment with a 12 h light dark-cycle with ad libitum access to food and water. Every procedure was performed in a laminar airflow under sterile condition. Tumor growth and possible side effects of drug treatment were evaluated by daily recording the tumor size by caliper measurement according to the formula length × width^2/2 and parameters of the animal's overall health conditions.

For a further data set, the target named is T1, albumin (Bos taurus, UniProt P02769).
T1 construct: Fetal calf serum was purchased from Sigma-Aldrich and buffered with 150 mM phosphate pH 7.4; tissue Sigma-Aldrich; host or cells: fetal calf serum
The experiment in a line: Albumin binding in fetal calf serum by SEC-ICP-MS. The class given is in vitro ADME. The following applies: 100 μM in FCS (150 mM phosphate buffer, pH 7.4), 37 °C, up to 6 h. Here is the method:
Fetal calf serum was purchased from Sigma-Aldrich and buffered with 150 mM phosphate pH 7.4 in order to guarantee a stable pH. The platinum(IV) complexes (5 mM) were dissolved in 150 mM phosphate buffer (pH 7.4) and diluted 1 : 50 in the buffered serum to obtain a final concentration of 100 μM. The samples were then incubated in the autosampler at 37 °C and analyzed every 1 h for 6 h. Between each sample a pure water blank was measured. For SEC-ICP-MS measurements an Agilent 1260 Infinity system coupled to an Agilent 7800 ICP-MS equipped with a dynamic reaction cell was used. Oxygen (purity 5.5, Messer Austria GmbH, Gumpoldskirchen, Austria) was used as reaction gas.

Data set [7] relates to CT26 allografts. Kind of data set: Anticancer activity i.v. in CT26-bearing mice. In kind it is in vivo, Balb/c mice. The settings on record: i.v., 4-times over 2 weeks, doses equimolar to 9 mg kg^−1 oxaliplatin. Here is the method: as §4
(§5) CT26 cells (5 × 10^5 cells in 50 μl serum-free medium) were injected s.c. into the right flank of female BALB/c mice. […] Asa was treated orally using 50 mg kg^−1 in 5% DMSO/0.9% NaCl. Every day, the animals were monitored for the overall health conditions. Additionally, tumor size was measured. In case of a decreased body weight of ∼20% or ulcerated tumors, animals were sacrificed by cervical dislocation and tumors as well as organs were collected.

Data set [8] deals with CT26 allografts. In kind it is in vivo. The settings on record: oxaliplatin 9 mg kg^−1 i.v. On the procedure:
as §4, §5

The test system of data set [9] is CT26 allografts. On the set-up: method as in not given. The settings on record: reported MTD; ref not given; cited from earlier work.

T1 sequence (P02769 25-607): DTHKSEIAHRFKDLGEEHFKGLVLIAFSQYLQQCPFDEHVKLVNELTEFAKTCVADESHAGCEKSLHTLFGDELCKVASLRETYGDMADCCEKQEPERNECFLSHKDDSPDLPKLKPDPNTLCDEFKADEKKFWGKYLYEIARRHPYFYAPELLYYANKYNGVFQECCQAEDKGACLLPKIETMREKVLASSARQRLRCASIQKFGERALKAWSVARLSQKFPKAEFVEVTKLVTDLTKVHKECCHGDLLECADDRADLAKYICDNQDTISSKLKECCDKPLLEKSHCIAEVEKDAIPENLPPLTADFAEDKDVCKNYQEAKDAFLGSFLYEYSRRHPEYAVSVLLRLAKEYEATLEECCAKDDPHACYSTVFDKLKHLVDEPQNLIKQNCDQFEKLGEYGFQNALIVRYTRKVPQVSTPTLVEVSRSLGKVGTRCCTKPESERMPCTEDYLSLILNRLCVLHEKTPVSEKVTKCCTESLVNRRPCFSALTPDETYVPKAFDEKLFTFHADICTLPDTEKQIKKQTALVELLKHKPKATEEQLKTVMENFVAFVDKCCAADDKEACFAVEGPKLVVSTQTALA

Broadly, the IC50 is the concentration at which inhibition is half-maximal. Higher therefore signals lower potency. `CC(=O)Oc1ccccc1C(=O)[O][Pt-2]12([O]C(C)=O)([NH2+][C@@H]3CCCC[C@H]3[NH2+]1)[O]C(=O)C(=O)[O]2` [OxAsaOAc, (OC-6-44)-acetato(2-acetoxybenzoato)[(1R,2R)-1,2-cyclohexanediamino]oxalatoplatinum(IV)]: the “Stability in aqueous solution” value in [1] is “high stability”. Also, in data set [2] (6 h), the “Intact complex after 6 h” value worked out at 92%. In addition, the “Intact complex after 24 h” value in data set [2] (24 h) was 53%. For the same molecule, the “Free salicylic acid in serum, share of administered dose” value in data set [3] (10 min after single i.v. dose equimolar to 9 mg kg^−1 oxaliplatin) and in [3] (1 h after single i.v. dose equimolar to 9 mg kg^−1 oxaliplatin) was less than 5 mol% in each case. Also, the “Salicylic acid level in serum” value in [3] (24 h after single i.v. dose equimolar to 9 mg kg^−1 oxaliplatin, below LOD) is less than 3 µM. Besides, the IC50 in the data set on Caco-2 is 17.9 ± 2.1 µM; in the data set on RKO, 4.3 ± 0.4 µM; with SW480 it was 11.2 ± 1.3 µM; in the data set with HT-29, 32.7 ± 5.5 µM; with HCT116, 9.9 ± 1.5 µM; in the data set on HCT116/OxR, 42.8 ± 4.3 µM. Also, the IC50 in the data set with CT26 (murine) turned out to be 12.8 ± 0.8 µM. Further, in the data set with HT-29 (HT29 cells), the “Fold higher activity than Ox(OAc)2” value is 4 fold. The “Fold more active than Ox(OAc)2” value in data set [4] is “about 2 fold”. Besides, in data set [5], the Tolerability entry is reported as “well tolerable”. For the same molecule, the “Impact on tumor growth” value in the data set on CT26 allografts [6] was “none of the drugs had any impact on tumor growth”. Moreover, the “Binding to albumin (or any other protein)” value at albumin was less than 5%. For the same molecule, the “Tolerability (body weight)” value in the data set with CT26 allografts [7] is on record as “well tolerated”. In addition, in the data set on CT26 allografts [7] (CT26), the “Anticancer activity (tumor growth, overall survival)” value is given as “significant impact on both tumor growth as well as overall survival”.
For the molecule `O=C1[O][Pt]2([NH][C@@H]3CCCC[C@H]3[NH]2)[O]C1=O` [Oxaliplatin, oxaliplatin], the IC50 came to 0.4 ± 0.04 µM with RKO; 1 ± 0.2 µM in the data set with SW480; 5.3 ± 1.2 µM in the data set on HT-29; 0.8 ± 0.1 µM with HCT116; 27.8 ± 5.2 µM in the data set with HCT116/OxR; 1.8 ± 0.2 µM with CT26 (murine). Besides, the “Response of tumor model (tumor growth)” value in the data set with CT26 allografts [8] was “responsiveness”. Also, in the data set with CT26 allografts [9], the MTD was 9 mg/kg.
